Article PMC6435255 (Nature chemistry, 2018)

What was measured:
hENT1 [1] = target: T1, hENT1 (Homo sapiens, UniProt Q99808); assay type: cell-based; conditions: PK15-ENT1 cells, combined with rapadocin
T1 sequence (Q99808 1-456): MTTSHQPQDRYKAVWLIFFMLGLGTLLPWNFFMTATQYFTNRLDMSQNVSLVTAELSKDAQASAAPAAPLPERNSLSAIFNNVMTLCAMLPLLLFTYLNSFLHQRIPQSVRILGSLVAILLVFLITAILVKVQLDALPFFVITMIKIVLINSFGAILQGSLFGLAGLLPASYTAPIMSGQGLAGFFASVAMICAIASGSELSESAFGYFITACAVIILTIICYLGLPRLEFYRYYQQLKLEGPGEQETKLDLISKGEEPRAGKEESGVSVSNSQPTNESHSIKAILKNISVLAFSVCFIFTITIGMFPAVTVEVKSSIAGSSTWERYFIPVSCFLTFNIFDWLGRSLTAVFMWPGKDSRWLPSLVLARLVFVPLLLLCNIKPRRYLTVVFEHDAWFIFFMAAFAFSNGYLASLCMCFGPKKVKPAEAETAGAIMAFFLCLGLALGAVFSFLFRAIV

[2] = test system: Id1-Luc luciferase reporter; assay: BMP reporter gene assay; assay type: cell-based, human; conditions: Jurkat T cells, 10 µM, 18 h
hENT1 [3] = target: hENT1 (Homo sapiens, UniProt P62942+Q99808); assay: GST-FKBP12 affinity pulldown, red blood cell membrane extract; assay type: binding; conditions: competitor
Sequence of hENT1 (Homo sapiens, UniProt P62942+Q99808) (P62942 whole entry, one chain of several): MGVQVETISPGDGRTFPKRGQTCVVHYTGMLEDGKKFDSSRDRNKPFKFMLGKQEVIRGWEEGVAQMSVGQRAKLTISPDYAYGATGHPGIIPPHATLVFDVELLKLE

hENT1 [4] = target: T1, hENT1; assay: Affinity pulldown with biotinylated rapadocin, red blood cell membrane extract; assay type: binding; conditions: competitor
HUVEC = assay: Adenosine; assay type: cell-based, human

Row | antagonism of rapadocin inhibition of hENT1-mediated thymidine uptake (hENT1 [1]) | activation of the Id1-Luc reporter gene [2] | competition of GST-FKBP12-rapadocin association with hENT1 (hENT1 [3]) | competition of hENT1 binding of the biotin-rapadocin probe (hENT1 [4]) | SMILES | IC50, nucleoside uptake (HUVEC)
1 | did not antagonize | – | – | – | COc1ccc(-c2ccc3c(N4CCOC[C@@H]4C)nc(N4CCOC[C@@H]4C)nc3n2)cc1CO [AZD8055] | –
2 | antagonize | activated the Id1-Luc reporter gene | sensitive to competition | not appreciably | C=CC[C@@H]1/C=C(\C)C[C@H](C)C[C@H](OC)[C@H]2O[C@@](O)(C(=O)C(=O)N3CCCC[C@H]3C(=O)O[C@H](/C(C)=C/[C@@H]3CC[C@@H](O)[C@H](OC)C3)[C@H](C)[C@@H](O)CC1=O)[C@H](C)C[C@@H]2OC [FK506] | low micromolar range
3 | antagonize | activated the Id1-Luc reporter gene | sensitive to competition | not appreciably | CO[C@H]1C[C@@H]2CC[C@@H](C)[C@@](O)(O2)C(=O)C(=O)N2CCCC[C@H]2C(=O)O[C@H]([C@H](C)C[C@@H]2CC[C@@H](O)[C@H](OC)C2)CC(=O)[C@H](C)/C=C(\C)[C@@H](O)[C@@H](OC)C(=O)[C@H](C)C[C@H](C)/C=C/C=C/C=C/1C [rapamycin] | low micromolar range
